These compounds were tested against T1, human M4 muscarinic acetylcholine receptor (Homo sapiens, UniProt P08173) (assay: human FLIPR-based M4 PAM assay (Ca2+ mobilization, CHO-K1 cells with human M4 receptor and Gαqi5)). Details: acetylcholine at 20% of maximum response, read-out: M4 PAM IP.
T1 construct: expressed in transfected cells; host or cells: CHO-K1
T1 sequence (P08173 1-479): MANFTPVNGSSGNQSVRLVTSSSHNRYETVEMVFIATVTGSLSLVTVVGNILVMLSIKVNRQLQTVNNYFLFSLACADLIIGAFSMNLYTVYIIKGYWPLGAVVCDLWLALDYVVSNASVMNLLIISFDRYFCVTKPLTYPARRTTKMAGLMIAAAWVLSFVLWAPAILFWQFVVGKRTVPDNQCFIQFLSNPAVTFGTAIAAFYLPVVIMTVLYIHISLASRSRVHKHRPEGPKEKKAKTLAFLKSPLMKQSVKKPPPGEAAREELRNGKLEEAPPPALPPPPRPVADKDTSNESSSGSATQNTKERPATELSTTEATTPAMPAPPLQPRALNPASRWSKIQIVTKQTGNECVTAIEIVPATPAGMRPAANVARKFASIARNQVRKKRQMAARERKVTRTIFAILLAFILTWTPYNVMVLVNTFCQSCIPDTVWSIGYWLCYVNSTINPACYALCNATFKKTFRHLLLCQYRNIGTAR
Type: cell-based
Method: In a typical experiment the M4 muscarinic acetylcholine receptor modulating activity of the compounds of the present invention was determined in accordance with the following experimental method. CHO-K1 cells stably transfected with human M4 receptor and chimeric G-protein Gαqi5 (Coward P, et al., Analytical Biochemistry, 270:242-248 (1999)) are thawed from liquid N2 storage, resuspended in growth medium, plated in black, clear bottom 384 well plates, and incubated 16-20 hours at 37° C., 5% CO2. On the day of assay, growth medium is removed, the cells are washed 2 times with wash buffer, and cells are incubated in dye loading buffer at 37° C., 5% CO2 for ˜1 hour. […] Next, 10 uL of acetylcholine is added (final concentration calculated so as to achieve 20% of the maximum acetycholine response), and the fluorescence reading is continued for 3.5 min. In some cases, a third addition of acetylcholine (final concentration calculated to achieve 70% of the maximal acetylcholine response) is performed. The resulting dose response curves are fit to a 4 parameter logistic equation and the final result is determined as the inflection point (IP) of the curve
CHO-K1 cells stably transfected with human M4 receptor and chimeric G-protein Gαqi5 are thawed from liquid N2 storage, resuspended in growth medium, plated in black, clear bottom 384 well plates, and incubated 16-20 hours at 37° C., 5% CO2.
On the day of assay, growth medium is removed, the cells are washed 2 times with wash buffer, and cells are incubated in dye loading buffer at 37° C., 5% CO2 for ˜1 h. […] Next, 10 uL of acetylcholine is added (final concentration calculated so as to achieve 20% of the maximum acetycholine response), and the fluorescence reading is continued for 3.5 min. In some cases, a third addition of acetylcholine (final concentration calculated to achieve 70% of the maximal acetylcholine response) is performed.

EC50 [nM] | Compound
168 | 3-methyl-2-(4-(3,3,3- trifluoro-2- hydroxypropoxy)piperi- din-1-yl)-6,7-dihydro- 5H-pyrrolo[3,4- b]pyridin-5-one [Example 179]
30 | Cc1cc2c(nc1N1CC[C@@H](Oc3cccc(C#N)c3)[C@@H](F)C1)CNC2=O (relative stereo) [Example 7, 3-((cis-3-fluoro-1-(3-methyl-5-oxo-6,7-dihydro-5H-pyrrolo[3,4-b]pyridin-2-yl)piperidin-4-yl)oxy)benzonitrile]
86 | COc1ccc(O[C@@H]2CCN(c3nc4c(cc3C)C(=O)NC4)C[C@H]2C)cn1 (single isomer, unassigned) [Example 2A]
734 | COc1ccc(O[C@H]2CCN(c3nc4c(cc3C)C(=O)NC4)C[C@@H]2C)cn1 (single isomer, unassigned) [Example 2B]
637 | Cc1cc2c(nc1N1CCC(OC[C@@H]3C[C@H]3C(F)(F)F)CC1)CNC2=O (single isomer, unassigned) [Example 3A, 3-methyl-2-(4-(((trans)-2-(trifluoromethyl)cyclopropyl)methoxy)piperidin-1-yl)-6,7-dihydro-5H-pyrrolo[3,4-b]pyridin-5-one]
82 | Cc1cc2c(nc1N1CCC(Oc3ccc(O[C@H](C)CO)nc3)CC1)CNC2=O (single isomer, unassigned) [Example 141A]
55 | Cc1cc2c(nc1N1CCC(Oc3ccc(O[C@@H](C)CO)nc3)CC1)CNC2=O (single isomer, unassigned) [Example 141B]
124 | Cc1cc2c(nc1N1CCC(Oc3ccc([C@@H](C)O)cc3)CC1)CNC2=O (single isomer, unassigned) [Example 150A]
197 | Cc1cc2c(nc1N1CCC(Oc3ccc([C@H](C)O)cc3)CC1)CNC2=O (single isomer, unassigned) [Example 150B]
452 | Cc1cc2c(nc1N1CCC(Oc3ccccc3)C(F)(F)C1)CNC2=O (single isomer, unassigned) [Example 158A, cis-2-(3,3-Difluoro-4-phenoxypiperidin-1-yl)-3-methyl-6,7-dihydro-5H-pyrrolo[3,4-b]pyridin-5-one]
17 | Cc1cc2c(nc1N1CCC(Oc3ccccc3)C(F)(F)C1)CNC2=O (single isomer, unassigned) [Example 158B, trans-2-(3,3-Difluoro-4-phenoxypiperidin-1-yl)-3-methyl-6,7-dihydro-5H-pyrrolo[3,4-b]pyridin-5-one]
627 | Cc1cc2c(nc1N1CCC(OC[C@]3(C)C[C@@H]3F)CC1)CNC2=O (single isomer, unassigned) [Example 160A]
96 | Cc1cc2c(nc1N1CCC(OC[C@@]3(C)C[C@H]3F)CC1)CNC2=O (single isomer, unassigned) [Example 160B]
58 | Cc1cc2c(nc1N1CCC(OC[C@]3(C)C[C@H]3F)CC1)CNC2=O (single isomer, unassigned) [Example 160C]
37 | Cc1cc2c(nc1N1CCC(OC[C@@]3(C)C[C@@H]3F)CC1)CNC2=O (single isomer, unassigned) [Example 160D]
467 | Cc1cc2c(nc1N1CC[C@H](Oc3cccnc3)[C@H](F)C1)CNC2=O (single isomer, unassigned) [Example 165, 2-((3R,4S) or (3S,4R)-3-fluoro-4-(pyridin-3-yloxy)piperidin-1-yl)-3-methyl-6,7-dihydro-5H-pyrrolo[3,4-b]pyridin-5-one]
90 | Cc1cc2c(nc1N1CC[C@@H](Oc3cccnc3)[C@@H](F)C1)CNC2=O (single isomer, unassigned) [Example 166, 2-((3S,4R) or (3R,4S)-3-fluoro-4-(pyridin-3-yloxy)piperidin-1-yl)-3-methyl-6,7-dihydro-5H-pyrrolo[3,4-b]pyridin-5-one]
209 | Cc1cc2c(nc1N1CCC(Oc3ccc4c(c3)C[S+]([O-])C4)CC1)CNC2=O (single isomer, unassigned) [Example 168A]
